Data: PubChem BioAssay (NCI)
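Interpolation was linear, between the two tested concentrations surrounding the appropriate level; five concentrations were tested over 48 hours in 96-well plates. Definition used: TGI = concentration required for complete inhibition of growth.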

What was measured:
Test in all cases: NCI tumour cell line growth inhibition, 48 h
DLD-1 colon = system: DLD-1 colon
DMS 114 small cell lung = system: DMS 114 small cell lung
HOP-18 NSCLC = system: HOP-18 NSCLC
KM20L2 colon = system: KM20L2 colon
M19-MEL melanoma = system: M19-MEL melanoma
P388 leukemia = system: P388 leukemia
P388/ADR leukemia = system: P388/ADR leukemia
SN12K1 renal = system: SN12K1 renal
SNB-78 CNS = system: SNB-78 CNS
RXF-631 renal = system: RXF-631 renal

SMILES | TGI (DLD-1 colon) | TGI (DMS 114 small cell lung) | TGI (HOP-18 NSCLC) | TGI (KM20L2 colon) | TGI (M19-MEL melanoma) | TGI (P388 leukemia) | TGI (P388/ADR leukemia) | TGI (SN12K1 renal) | TGI (SNB-78 CNS) | TGI (RXF-631 renal)
NC(CSCSCC(N)C(=O)O)C(=O)O (stereo not drawn) | > 225 µM | > 225 µM | > 225 µM | > 225 µM | > 225 µM | > 71.2 µM | > 225 µM | > 225 µM | > 104 µM | –
C/C(CCN(C)C)=N\OC(=O)c1ccccc1 | > 100 µM | > 100 µM | 8.9 µM | > 100 µM | > 100 µM | – | – | – | > 100 µM | –
Cn1c(=O)n(C2(C)CSC2)c2ccccc21 | > 100 µM | > 100 µM | – | > 100 µM | > 100 µM | – | – | – | – | –
CC(C)(C)CI | > 100 µM | 48.3 µM | > 10 µM | > 100 µM | 53.9 µM | – | – | – | 79.4 µM | > 100 µM
CC#CC#C/C=C1\C=CC2(OC=CC2O)O1 (stereo not drawn) | > 23.3 µM | > 22.5 µM | 14.9 µM | 10.4 µM | > 23.3 µM | – | – | – | > 7.37 µM | –
CC(C)C(CCOS(=O)(=O)O)CCC(C)[C@H]1[C@@H](O)C(O)C2[C@]3(O)C[C@@H](O)C4(O)C[C@@H](O)CC[C@]4(C)C3CC[C@@]21C (stereo partly drawn) | > 100 µM | > 100 µM | > 100 µM | > 100 µM | > 100 µM | – | – | – | > 100 µM | –
COc1cccc(/C=N/[N-]C(N)=O)c1[O-].[Co+2].[OH3+].c1ccncc1 | – | – | – | > 100 µM | – | – | – | – | – | –
CCCC(C(=O)OC)C1N=C(NC#N)N(Cc2ccccc2)C1=O (stereo not drawn) | > 100 µM | > 100 µM | – | > 100 µM | > 100 µM | – | – | – | – | –
